± gives the expanded uncertainty stated by the source.
Assays:
[1] = 101.33 kPa, Liquid; for thermal conductivity: transient hot wire; for mass density: Vibrating tube method; for viscosity: Cone and plate viscometry; for electrical conductivity: Direct current cell with electrodes
[2] = molar heat capacity at constant pressure; conditions: 101.33 kPa, Liquid, Small sample (50 mg) DSC

`CCCCCC(=O)[O-].CCCCCCCCCCCCCC[P+](CCCCCC)(CCCCCC)CCCCCC` [trihexyl(tetradecyl)phosphonium hexanoate] gave a thermal conductivity ([1]; 278.22 K) of 0.1591 ± 0.0095 W/m/K, a thermal conductivity ([1]; 287.73 K) of 0.1574 ± 0.01 W/m/K and a mass density ([1]; 293.15 K) of 888.5 ± 1.9 kg/m3. It also gave a viscosity ([1]; 293.2 K) of 435.1 ± 32 mPa·s, a mass density ([1]; 298.15 K) of 885.5 ± 1.9 kg/m3 and a viscosity ([1]; 298.2 K) of 343.1 ± 24 mPa·s. The thermal conductivity ([1]; 298.98 K) was 0.156 ± 0.0096 W/m/K, the electrical conductivity ([1]; 299.6 K) was 0.0033 ± 0.00018 S/m and the mass density ([1]; 303.15 K) was 882.3 ± 1.9 kg/m3. The viscosity ([1]; 303.2 K) was 260.7 ± 18 mPa·s, the electrical conductivity ([1]; 303.8 K) was 0.00454 ± 0.00021 S/m and the thermal conductivity ([1]; 307.3 K) was 0.1547 ± 0.01 W/m/K. The electrical conductivity ([1]; 308.1 K) was 0.00563 ± 0.00026 S/m, the viscosity ([1]; 308.2 K) was 200 ± 13 mPa·s and the mass density ([1]; 313.15 K) was 876 ± 1.9 kg/m3. It also gave a viscosity ([1]; 313.2 K) of 155.8 ± 10 mPa·s, an electrical conductivity ([1]; 313.9 K) of 0.00765 ± 0.00034 S/m and a thermal conductivity ([1]; 318.15 K) of 0.1533 ± 0.01 W/m/K. The viscosity ([1]; 318.2 K) was 123.4 ± 7.9 mPa·s, the electrical conductivity ([1]; 318.4 K) was 0.00943 ± 0.00041 S/m and the mass density ([1]; 323.15 K) was 869.7 ± 1.9 kg/m3. It also gave a viscosity ([1]; 323.2 K) of 99.18 ± 6.2 mPa·s, an electrical conductivity ([1]; 323.6 K) of 0.0118 ± 0.00052 S/m and an electrical conductivity ([1]; 328 K) of 0.0144 ± 0.00063 S/m. For the same compound, the viscosity ([1]; 328.2 K) was 80.79 ± 5 mPa·s, the thermal conductivity ([1]; 329.17 K) was 0.151 ± 0.011 W/m/K and the mass density ([1]; 333.15 K) was 863.6 ± 1.8 kg/m3. The viscosity ([1]; 333.2 K) was 66.6 ± 4.1 mPa·s, the electrical conductivity ([1]; 333.6 K) was 0.018 ± 0.00078 S/m and the thermal conductivity ([1]; 336.96 K) was 0.15 ± 0.011 W/m/K. For the same compound, the viscosity ([1]; 338.2 K) was 55.39 ± 3.4 mPa·s, the electrical conductivity ([1]; 338.9 K) was 0.0223 ± 0.001 S/m and the electrical conductivity ([1]; 343 K) was 0.026 ± 0.0011 S/m. For the same compound, the mass density ([1]; 343.15 K) was 857.5 ± 1.8 kg/m3, the viscosity ([1]; 343.2 K) was 46.46 ± 2.9 mPa·s and the thermal conductivity ([1]; 347.73 K) was 0.1497 ± 0.011 W/m/K. The viscosity ([1]; 348.2 K) was 39.52 ± 2.4 mPa·s, the electrical conductivity ([1]; 349.3 K) was 0.0325 ± 0.0014 S/m and the mass density ([1]; 353.15 K) was 851.5 ± 1.8 kg/m3. It also gave a viscosity ([1]; 353.2 K) of 33.7 ± 2.1 mPa·s, a thermal conductivity ([1]; 357.74 K) of 0.1476 ± 0.01 W/m/K and a viscosity ([1]; 358.2 K) of 28.97 ± 1.8 mPa·s. For the same compound, the mass density ([1]; 363.15 K) was 845.4 ± 1.8 kg/m3, the viscosity ([1]; 363.2 K) was 25.05 ± 1.5 mPa·s and the viscosity ([1]; 368.2 K) was 21.82 ± 1.3 mPa·s. The “molar heat capacity at constant pressure” value ([2]; 293.15 K) was 1133.3 ± 70 J/K/mol, the “molar heat capacity at constant pressure” value ([2]; 298.15 K) was 1141.7 ± 70 J/K/mol and the “molar heat capacity at constant pressure” value ([2]; 303.15 K) was 1149.5 ± 71 J/K/mol. The “molar heat capacity at constant pressure” value ([2]; 308.15 K) was 1156.7 ± 71 J/K/mol, the “molar heat capacity at constant pressure” value ([2]; 313.15 K) was 1163.9 ± 72 J/K/mol and the “molar heat capacity at constant pressure” value ([2]; 318.15 K) was 1169.3 ± 72 J/K/mol. For the same compound, the “molar heat capacity at constant pressure” value ([2]; 323.15 K) was 1176.4 ± 72 J/K/mol, the “molar heat capacity at constant pressure” value ([2]; 328.15 K) was 1182.4 ± 73 J/K/mol and the “molar heat capacity at constant pressure” value ([2]; 333.15 K) was 1189 ± 73 J/K/mol. For the same compound, the “molar heat capacity at constant pressure” value ([2]; 338.15 K) was 1196.8 ± 74 J/K/mol, the “molar heat capacity at constant pressure” value ([2]; 343.15 K) was 1204 ± 74 J/K/mol and the “molar heat capacity at constant pressure” value ([2]; 348.15 K) was 1211.2 ± 75 J/K/mol. For the same compound, the “molar heat capacity at constant pressure” value ([2]; 353.15 K) was 1219 ± 75 J/K/mol, the “molar heat capacity at constant pressure” value ([2]; 358.15 K) was 1227.4 ± 75 J/K/mol and the “molar heat capacity at constant pressure” value ([2]; 363.15 K) was 1235.2 ± 76 J/K/mol.

With `CCCC(=O)[O-].CCCCCCCCCCCCCC[P+](CCCCCC)(CCCCCC)CCCCCC` [trihexyl(tetradecyl)phosphonium butyrate] the thermal conductivity ([1]; 277.77 K) was 0.16 ± 0.0097 W/m/K, the thermal conductivity ([1]; 288.17 K) was 0.159 ± 0.0087 W/m/K and the mass density ([1]; 293.15 K) was 893 ± 1.9 kg/m3. For the same compound, the viscosity ([1]; 293.2 K) was 334.3 ± 24 mPa·s, the electrical conductivity ([1]; 295.2 K) was 0.00389 ± 0.00019 S/m and the mass density ([1]; 298.15 K) was 890.4 ± 1.9 kg/m3. The viscosity ([1]; 298.2 K) was 251.1 ± 17 mPa·s, the thermal conductivity ([1]; 298.48 K) was 0.1566 ± 0.0095 W/m/K and the mass density ([1]; 303.15 K) was 887.8 ± 1.9 kg/m3. For the same compound, the viscosity ([1]; 303.2 K) was 190.2 ± 13 mPa·s, the electrical conductivity ([1]; 303.8 K) was 0.00631 ± 0.00028 S/m and the thermal conductivity ([1]; 306.44 K) was 0.1553 ± 0.0095 W/m/K. For the same compound, the viscosity ([1]; 308.2 K) was 146.3 ± 9.5 mPa·s, the electrical conductivity ([1]; 308.5 K) was 0.0083 ± 0.00037 S/m and the mass density ([1]; 313.15 K) was 881.2 ± 1.9 kg/m3. For the same compound, the viscosity ([1]; 313.2 K) was 115 ± 7.3 mPa·s, the electrical conductivity ([1]; 313.9 K) was 0.0106 ± 0.00048 S/m and the thermal conductivity ([1]; 318.11 K) was 0.1543 ± 0.0081 W/m/K. The viscosity ([1]; 318.2 K) was 91.46 ± 5.7 mPa·s, the electrical conductivity ([1]; 318.5 K) was 0.0137 ± 0.00061 S/m and the mass density ([1]; 323.15 K) was 875.1 ± 1.9 kg/m3. The viscosity ([1]; 323.2 K) was 74.08 ± 4.6 mPa·s, the electrical conductivity ([1]; 323.6 K) was 0.0172 ± 0.00075 S/m and the thermal conductivity ([1]; 327.69 K) was 0.1526 ± 0.011 W/m/K. The viscosity ([1]; 328.2 K) was 60.22 ± 3.7 mPa·s, the electrical conductivity ([1]; 328.8 K) was 0.0214 ± 0.0009 S/m and the mass density ([1]; 333.15 K) was 869 ± 1.9 kg/m3. The viscosity ([1]; 333.2 K) was 49.78 ± 3.1 mPa·s, the electrical conductivity ([1]; 333.8 K) was 0.0261 ± 0.0011 S/m and the thermal conductivity ([1]; 336.59 K) was 0.1509 ± 0.012 W/m/K. The viscosity ([1]; 338.2 K) was 41.11 ± 2.5 mPa·s, the electrical conductivity ([1]; 338.7 K) was 0.0315 ± 0.0013 S/m and the mass density ([1]; 343.15 K) was 862.7 ± 1.8 kg/m3. The viscosity ([1]; 343.2 K) was 34.26 ± 2.1 mPa·s, the electrical conductivity ([1]; 343.9 K) was 0.0377 ± 0.0016 S/m and the thermal conductivity ([1]; 348.16 K) was 0.1503 ± 0.01 W/m/K. It also gave a viscosity ([1]; 348.2 K) of 28.85 ± 1.8 mPa·s, an electrical conductivity ([1]; 349.1 K) of 0.0446 ± 0.0019 S/m and a mass density ([1]; 353.15 K) of 856.7 ± 1.8 kg/m3. For the same compound, the viscosity ([1]; 353.2 K) was 24.66 ± 1.5 mPa·s, the thermal conductivity ([1]; 355.83 K) was 0.1492 ± 0.011 W/m/K and the viscosity ([1]; 358.2 K) was 21.36 ± 1.3 mPa·s. For the same compound, the mass density ([1]; 363.15 K) was 850.3 ± 1.8 kg/m3, the viscosity ([1]; 363.2 K) was 18.76 ± 1.1 mPa·s and the viscosity ([1]; 368.2 K) was 16.49 ± 1 mPa·s. For the same compound, the “molar heat capacity at constant pressure” value ([2]; 293.15 K) was 1107.1 ± 69 J/K/mol, the “molar heat capacity at constant pressure” value ([2]; 298.15 K) was 1112.8 ± 69 J/K/mol and the “molar heat capacity at constant pressure” value ([2]; 303.15 K) was 1118.5 ± 69 J/K/mol. For the same compound, the “molar heat capacity at constant pressure” value ([2]; 308.15 K) was 1123.6 ± 69 J/K/mol, the “molar heat capacity at constant pressure” value ([2]; 313.15 K) was 1129.9 ± 70 J/K/mol and the “molar heat capacity at constant pressure” value ([2]; 318.15 K) was 1136.2 ± 70 J/K/mol. The “molar heat capacity at constant pressure” value ([2]; 323.15 K) was 1142.5 ± 70 J/K/mol, the “molar heat capacity at constant pressure” value ([2]; 328.15 K) was 1148.2 ± 71 J/K/mol and the “molar heat capacity at constant pressure” value ([2]; 333.15 K) was 1154.5 ± 71 J/K/mol. The “molar heat capacity at constant pressure” value ([2]; 338.15 K) was 1161.3 ± 71 J/K/mol, the “molar heat capacity at constant pressure” value ([2]; 343.15 K) was 1168.2 ± 72 J/K/mol and the “molar heat capacity at constant pressure” value ([2]; 348.15 K) was 1175 ± 73 J/K/mol. For the same compound, the “molar heat capacity at constant pressure” value ([2]; 353.15 K) was 1181.9 ± 73 J/K/mol, the “molar heat capacity at constant pressure” value ([2]; 358.15 K) was 1188.7 ± 73 J/K/mol and the “molar heat capacity at constant pressure” value ([2]; 363.15 K) was 1196.1 ± 74 J/K/mol.

Reference: the NIST ThermoML archive (doi:10.1016/j.jct.2018.02.013)
